Each structure is given as a SMILES string. Where two headings read alike, the source gives them in different places. Numbered stars: 1 amine (or outer) side, 2 acyl side, 3 side chain; on linkers, the order of the positions; unused ones are H or OH. Bridge positions count the residues as written; N and C are the ends. Square brackets hold non-standard residues; d marks the D form. Peptide text beside a SMILES is read from it. * marks the point of attachment. DOTA = O=C(O)CN1CCN(CC(=O)O)CCN(CC(=O)*)CCN(CC(=O)O)CC1; Phe(3-Cl) = N[C@@H](Cc1cccc(Cl)c1)C(=O)O; Phe(4-Cl) = N[C@@H](Cc1ccc(Cl)cc1)C(=O)O; X1 = O=C(CC1CCN([*:1])CC1)[*:2]; Aad = N[C@@H](CCCC(=O)O)C(=O)O; Tle = CC(C)(C)[C@H](N)C(=O)O; Pyridin(2-yl) = c1ccc(*)nc1; Nle = CCCC[C@H](N)C(=O)O; Orn = NCCC[C@H](N)C(=O)O; Aib = CC(C)(N)C(=O)O; CO = O=C([*:1])[*:2]; Guanidino = N=C(N)N*; NHBu = CCCCN* Bounds are passed on as bounds.

The target in assay [1] is T1, Fc-fusion protein of human PSMA (hPSMA-Fc) (Homo sapiens, UniProt Q04609).
T1 construct: purchased Acro Biosystems PSA-H5264
The assay is described as follows: Surface plasmon resonance assay (Biacore T200, single cycle kinetic). It counts as binding. The note with it: read-out: pKD CAT (converted). An outline of the steps:
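KD, expressed as pKD, came from 1:1 Langmuir fits of reference- and buffer-blank-subtracted SPR data. The runs were single-cycle kinetics at 25° C in HBST/0.1% DMSO over human PSMA-Fc, captured to ~1000 RU on a peptide-coated CM5 surface and regenerated with 10 mM glycine pH 1.5.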
Background: SPR reads the build-up and loss of mass on a sensor chip optically.

Assay [2] addresses T2, PSMA-expressing C4-2 cells (Homo sapiens, UniProt Q04609).
T2 construct: PSMA-expressing C4-2 cells (ATCC, Cat. No. CRL-3314) were cultured in RPMI-1640; host or cells: C4-2 cells
The assay is described as follows: FACS binding assay (competition with 50 nM PSM-0183). The following applies: read-out: pIC50 [C4-2] CAT (converted). An outline of the steps:
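Competition format: fluorescent tracer PSM-0183 (50 nM) displaced from PSMA on C4-2 cells by a test compound titration over 1 h at 4 °C. Bound tracer was quantified as flow-cytometric AF488 median fluorescence after washing. Four-parameter logistic fits of MFI data gave IC50 and pIC50.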
Background: Flow cytometry measures light scatter and fluorescence of single cells or particles in a stream.

Setting [3] is: FACS binding, C4-2 cells, category.
[4] abbreviates: pKD category for PSMA SPR activity assay, hPSMA-Fc, 25° C.
Setting [5] is: pIC50 category of FACS binding, C4-2 cells.

T2 sequence (Q04609 whole entry): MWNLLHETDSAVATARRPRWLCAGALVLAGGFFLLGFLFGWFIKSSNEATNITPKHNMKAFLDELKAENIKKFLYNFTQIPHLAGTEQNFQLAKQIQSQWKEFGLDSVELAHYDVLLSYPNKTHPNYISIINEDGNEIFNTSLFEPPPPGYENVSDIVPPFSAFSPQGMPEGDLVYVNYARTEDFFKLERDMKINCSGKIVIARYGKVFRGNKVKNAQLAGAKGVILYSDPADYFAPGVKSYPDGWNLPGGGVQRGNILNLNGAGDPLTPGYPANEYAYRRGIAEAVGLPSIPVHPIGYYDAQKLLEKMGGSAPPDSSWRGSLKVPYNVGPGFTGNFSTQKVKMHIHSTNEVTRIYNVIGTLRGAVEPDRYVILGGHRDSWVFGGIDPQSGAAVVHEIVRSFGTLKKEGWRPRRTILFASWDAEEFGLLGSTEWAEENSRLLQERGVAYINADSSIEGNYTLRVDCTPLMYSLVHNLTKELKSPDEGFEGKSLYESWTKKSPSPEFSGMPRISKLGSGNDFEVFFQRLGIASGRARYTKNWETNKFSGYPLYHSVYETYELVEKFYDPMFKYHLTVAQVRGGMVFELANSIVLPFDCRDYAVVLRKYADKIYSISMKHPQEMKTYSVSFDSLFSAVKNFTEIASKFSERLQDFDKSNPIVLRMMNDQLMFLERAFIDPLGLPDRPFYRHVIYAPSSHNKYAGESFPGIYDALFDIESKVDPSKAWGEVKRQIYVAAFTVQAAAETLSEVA
T1 sequence (Q04609 44-750 limits assumed): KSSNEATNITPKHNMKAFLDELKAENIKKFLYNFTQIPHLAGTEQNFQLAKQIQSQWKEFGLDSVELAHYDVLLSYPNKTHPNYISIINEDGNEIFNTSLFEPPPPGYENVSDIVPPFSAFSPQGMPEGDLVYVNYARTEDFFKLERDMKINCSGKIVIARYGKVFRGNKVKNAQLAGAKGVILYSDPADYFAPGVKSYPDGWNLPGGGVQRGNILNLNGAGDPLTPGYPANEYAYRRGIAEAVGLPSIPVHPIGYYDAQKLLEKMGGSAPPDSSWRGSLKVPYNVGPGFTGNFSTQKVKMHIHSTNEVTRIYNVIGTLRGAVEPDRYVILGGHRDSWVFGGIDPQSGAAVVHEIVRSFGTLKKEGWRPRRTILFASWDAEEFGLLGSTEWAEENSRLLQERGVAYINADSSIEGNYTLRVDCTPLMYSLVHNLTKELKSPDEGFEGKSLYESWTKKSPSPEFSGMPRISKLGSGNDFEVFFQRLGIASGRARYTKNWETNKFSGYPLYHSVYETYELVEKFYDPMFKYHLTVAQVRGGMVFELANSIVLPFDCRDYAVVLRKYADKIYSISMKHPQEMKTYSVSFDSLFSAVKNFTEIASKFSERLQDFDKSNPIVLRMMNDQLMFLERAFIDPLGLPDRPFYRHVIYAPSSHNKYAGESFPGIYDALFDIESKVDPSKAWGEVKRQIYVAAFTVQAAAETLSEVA

As to `CCCCNC(=O)N[C@H](C(=O)NC(C)(C)C(=O)N[C@@H](Cc1cccc(Cl)c1)C(=O)N[C@H]1CSSC[C@@H](C(=O)N[C@H](C(=O)N[C@H](C(=O)N2CCC(CC(=O)N[C@H](CCCCNC(=O)CN3CCN(CC(=O)O)CCN(CC(=O)O)CCN(CC(=O)O)CC3)C(N)=O)CC2)[C@@H](C)O)C(C)(C)C)NC(=O)[C@H](CC(N)=O)NC(=O)C(C)(C)NC(=O)[C@H](CCCNc2ccccn2)NC(=O)[C@H](CCCCN)NC1=O)[C@@H](C)O` [PSM-0571, nBuCAyl-Thr-Aib-Mcf-[Cys-Lys-Opy-Aib-Asn-Cys]-Tle-Thr-Cmp-lys(DOTA)-NH2] ({NHBu-CO}-T[Aib][Phe(3-Cl)]CK[Orn](Pyridin(2-yl))[Aib]NC[Tle]T[X1][dK](DOTA)-NH2; disulfide 4-9), the Kd in assay [1] (PSMA SPR assay, category) is 12.6 to 126 nM. Also, the IC50 in assay [2] (setting [3]) is 200 to 1260 nM.
Taken in the same sequence, the figures for `CCCC[C@H](NC(=O)[C@@H]1CSSC[C@H](NC(=O)[C@H](C)NC(=O)[C@H](C)NC(=O)[C@@H](NC(C)=O)[C@@H](C)O)C(=O)N[C@@H](CCCCN)C(=O)N[C@@H](CCCNC(=N)N)C(=O)N[C@@H](C)C(=O)N[C@@H](CC(N)=O)C(=O)N1)C(=O)N[C@H](C(=O)N[C@@H](CC(=O)O)C(N)=O)[C@@H](C)O` [PSM-0586, Ac-Thr-Ala-Ala-[Cys-Lys-Arg-Ala-Asn-Cys]-Nle-Thr-Asp-NH2] (Ac-TAACKRANC[Nle]TD-NH2; disulfide 4-9) were above 501 nM and above 3160 nM.
Consider `CCCC[C@H](NC(=O)[C@@H]1CSSC[C@H](NC(=O)[C@H](Cc2ccccc2)NC(=O)[C@H](C)NC(=O)[C@@H](NC(C)=O)[C@@H](C)O)C(=O)N[C@@H](CCCCN)C(=O)N[C@@H](CCCNC(=N)N)C(=O)N[C@@H](C)C(=O)N[C@@H](CC(N)=O)C(=O)N1)C(=O)N[C@H](C(=O)N[C@H](CC(=O)O)C(N)=O)[C@@H](C)O` [PSM-0389, Ac-Thr-Ala-Phe-[Cys-Lys-Arg-Ala-Asn-Cys]-Nle-Thr-asp-NH2], for which, in assay [1] (setting [4]), the Kd is 12.6 to 126 nM. In addition, in assay [2] (setting [5]), the IC50 was below 200 nM.
`C[C@@H](O)[C@H](NC(=O)[C@@H](NC(=O)[C@@H]1CSSC[C@H](NC(=O)[C@H](Cc2ccc(Cl)cc2)NC(=O)[C@H](CCC(=O)O)NC(=O)[C@@H](NC(=O)CC2CCN(C(=O)CN3CCN(CC(=O)O)CCN(CC(=O)O)CCN(CC(=O)O)CC3)CC2)[C@@H](C)O)C(=O)N[C@@H](CCCCN)C(=O)N[C@@H](CCCNC(=N)N)C(=O)NC(C)(C)C(=O)N[C@@H](CC(N)=O)C(=O)N1)C(C)(C)C)C(N)=O` [PSM-0276, DOTA-Cmp-Thr-Glu-Pcf-[Cys-Lys-Arg-Aib-Asn-Cys]-Tle-Thr-NH2] ({DOTA}-[X1]TE[Phe(4-Cl)]CKR[Aib]NC[Tle]T-NH2; disulfide 5-10): the Kd in assay [1] (PSMA SPR assay, hPSMA-Fc, 25° C., pKD category) was above 501 nM. The IC50 in assay [2] (FACS binding, PSMA-expressing C4-2 cells, pIC50 category) is above 3160 nM.
As to `C[C@@H](O)[C@H](NC(=O)[C@@H](NC(=O)[C@@H]1CSSC[C@H](NC(=O)[C@H](Cc2ccc(Cl)cc2)NC(=O)C(C)(C)NC(=O)[C@@H](NC(=O)CC2CCN(C(=O)CN3CCN(CC(=O)O)CCN(CC(=O)O)CCN(CC(=O)O)CC3)CC2)[C@@H](C)O)C(=O)N[C@@H](CCCC(N)=O)C(=O)N[C@@H](CCCNC(=N)N)C(=O)NC(C)(C)C(=O)N[C@@H](CC(N)=O)C(=O)N1)C(C)(C)C)C(N)=O` [PSM-0485, DOTA-Cmp-Thr-Aib-Pcf-[Cys-Hgn-Arg-Aib-Asn-Cys]-Tle-Thr-NH2] ({DOTA}-[X1]T[Aib][Phe(4-Cl)]C[Aad](NH2)R[Aib]NC[Tle]T-NH2; disulfide 5-10), the Kd in assay [1] (setting [4]) is below 12.6 nM. Also, in assay [2] (setting [5]), the IC50 is below 200 nM.
With `CC(=O)N[C@H](C(=O)NC(C)(C)C(=O)N[C@@H](Cc1ccc(Cl)cc1)C(=O)N[C@H]1CSSC[C@@H](C(=O)N[C@H](C(=O)N[C@H](C(N)=O)[C@@H](C)O)C(C)(C)C)NC(=O)[C@H](CC(N)=O)NC(=O)C(C)(C)NC(=O)[C@H](CCC(=O)NC(=N)N)NC(=O)[C@H](CCCCN)NC1=O)[C@@H](C)O` [PSM-0189, Ac-Thr-Aib-Pcf-[Cys-Lys-Gln(Gu)-Aib-Asn-Cys]-Tle-Thr-NH2] (Ac-T[Aib][Phe(4-Cl)]CKE(Guanidino)[Aib]NC[Tle]T-NH2; disulfide 4-9), the Kd in assay [1] (SPR, hPSMA-Fc, single cycle kinetic, 25° C., category) was below 12.6 nM. Moreover, in assay [2] (FACS binding, C4-2 cells, competition with 50 nM PSM-0183, category), the IC50 was below 200 nM.
On to `CC(=O)NCCCC[C@@H]1NC(=O)[C@@H](NC(=O)[C@H](Cc2ccc(Cl)cc2)NC(=O)C(C)(C)NC(=O)[C@@H](NC(=O)CC2CCN(C(=O)CN3CCN(CC(=O)O)CCN(CC(=O)O)CCN(CC(=O)O)CC3)CC2)[C@@H](C)O)CSSC[C@@H](C(=O)N[C@H](C(=O)N[C@H](C(N)=O)[C@@H](C)O)C(C)(C)C)NC(=O)[C@H](CC(N)=O)NC(=O)C(C)(C)NC(=O)[C@H](CCCNC(=N)N)NC1=O` [PSM-0466, DOTA-Cmp-Thr-Aib-Pcf-[Cys-Lys(Ac)-Arg-Aib-Asn-Cys]-Tle-Thr-NH2] ({DOTA}-[X1]T[Aib][Phe(4-Cl)]CK(Ac)R[Aib]NC[Tle]T-NH2; disulfide 5-10), for which the Kd in assay [1] (setting [4]) is below 12.6 nM. The IC50 in assay [2] (setting [5]) was 200 to 1260 nM.

Source of the values: patent US20260083865A1, “PROSTATE SPECIFIC MEMBRANE ANTIGEN (PSMA) LIGANDS AND USE THEREOF” (priority 2022, published 2026).
